Our source for the pKa values is the pKa sets of Baltruschat and Czodrowski (2020).

For the first series the following is noted: acidic group.
Usually pKa stands for the pH at which an ionisable group is half protonated. High values mean a group that holds its proton tightly, low ones a group that gives up its proton readily. In turn, `Oc1c(Cl)cc(Cl)cc1C[NH+]1CCOCC1` had a pKa of 5.67.
As for `C[n+]1cccc(O)c1`, the pKa is 4.96.
Same read-out and setting: then `Nc1n[nH]c(N)c1/N=N/c1ccccc1O`, with 8.22; and `CC(C)CCC1=C(O)C(=O)c2ccccc2C1=O`, with 5.13.
Still for that read-out and setting: then `[O-]c1ccc(/C=N/O)cc1`, with 12; and `O=[N+]([O-])c1cccc(-c2ccc(O)cc2)c1`, with 9.14; and `O=C(O)C1(O)CCCC1`, with 4.11.
Still for that read-out and setting: the same measure for `O=C(O)c1ccc(-c2nnn[nH]2)cc1`: 3.63; for `Cc1ccc(C(O)C(C(=O)O)c2ccc(-c3ccccc3)cc2)cc1` (stereo not given): 4.24; for `OC[C@H]1O[C@@H]2NC(=S)O[C@@H]2[C@H]1O`: 9.48.
As to `CCCCCCc1c(-c2ccccc2)n[nH]c1O`, the pKa worked out at 8.6.
On the same count and under the same terms, then `CC(CC(=O)O)C(N)=O` (stereo not given), with 4.59.
On the same count and under the same terms, the same measure for `CC1(C)[C@@H]2CC[C@](C(=O)O)(C2)[C@H]1O`: 5.05; for `C[NH+](C)Cc1c(O)c(O)c(O)c(C[NH+](C)C)c1C(=O)[O-]`: 6.95.
The same measure, in the same setting: the same measure for `O=C(O)c1cncs1`: 2.99; for `O/N=C/c1ccncc1`: 9.91; for `CC(C)(C)CCCCc1ccc(O)cc1`: 11.2.
`CC(C)CC([NH3+])C(=O)O` (stereo not given) had a pKa of 2.46.
On the same count and under the same terms, the same measure for `Cc1ccccc(=O)c1O`: 7.92.
Still for that read-out and setting: the same measure for `CCc1ccc(O)c(C(C)C)c1`: 10.8; for `COP(=O)([O-])NS(C)(=O)=O`: 6.55; for `COc1ccccc1/C=C/C(=O)O`: 4.57.
On the same count and under the same terms, the same measure for `Cc1ccc(S(=O)(=O)N(CC[NH2+]CC(=O)O)CC(=O)O)cc1`: 1.99; for `O=C(O)c1ccc(=O)oc1`: 3.26; for `Oc1ccc2nccnc2c1`: 7.92.
Turning to `Cc1ccccc1OC(C)C(=O)O` (stereo not given), the pKa amounted to 3.37.
For `O=c1[nH]c2ccccc2c(=O)o1`, the pKa amounted to 8.25.
`O=c1oc2cc(O)ccc2cc1-c1nc2ccccc2s1` showed a pKa of 7.02.
The same measure, in the same setting: the same measure for `C[NH+]1CSC[C@H]1C(=O)O`: 1.51; for `NC(=O)C1CN2CCC1CC2` (stereo not given): 9.74; for `Cc1[nH]ccc1C(=O)O`: 5.8.
With `CCCCNc1cc[nH+]c(S)n1`, the pKa turned out to be 3.2.
On the same count and under the same terms, then `O=C1CCC(=O)C1`, with 4.5; and `CC(I)C(=O)O` (stereo not given), with 3.21; and `O=P(O)(O)C([NH2+]Cc1cccc[nH+]1)c1ccccc1O` (stereo not given), with 2.25.
Still for that read-out and setting: the same measure for `COCC1=C(C(=O)O)C2C=CC1C2` (stereo not given): 4.59; for `Cc1cc(Nc2ccc([O-])cc2)c(C(C)C)cc1O`: 10.7; for `O=c1[nH]cnc2[nH]ncc12`: 9.38.
On the same count and under the same terms, the same measure for `Cc1ccccc1S(=O)O`: 1.47.
Regarding `O=Nc1ccc(O)cc1`, the pKa came to 6.2.
On the same count and under the same terms, the same measure for `Cc1cccc(Cl)c1C(=O)O`: 2.59; for `O=S(=O)([O-])c1cc(O)cc2[nH]ncc12`: 8.85; for `c1ccc(-c2nc3cnccc3[nH]2)cc1`: 10.3.
The same measure, in the same setting: the same measure for `Oc1ccc(Cl)cc1CN1CCOCC1`: 9.85.
The same measure, in the same setting: then `COc1ccc(O)cc1[N+](=O)[O-]`, with 8.68.
`N#Cc1c(-c2nc3ccccc3o2)c(=O)oc2cc(O)ccc12` had a pKa of 6.07.
Consider `Cc1nn(C)c(O)c1Cc1ccccc1`, for which the pKa worked out at 10.9.
Still for that read-out and setting: the same measure for `NS(=O)(=O)c1ccc(/N=C/c2ccccc2[O-])cc1`: 11.7; for `O=C(O)[C@@H]1CC[C@H](C(=O)O)S1`: 3.34; for `Cc1cccc2ccc(O)cc12`: 9.42.
The same measure, in the same setting: the same measure for `O=C(Cc1cccnc1)c1ccccc1`: 13.7.
`Cc1cc(O)nn1-c1ccccc1C(=O)[O-]` showed a pKa of 12.2.
Still for that read-out and setting: then `O=[N+]([O-])c1ccc(-c2nnn[nH]2)cc1`, with 3.08; and `O=C(O)c1cccc(Oc2ccccc2)c1`, with 3.95.
Still for that read-out and setting: the same measure for `COCc1ccc(C(=O)O)cc1`: 4.18; for `Oc1ccc(Cl)c(Cl)c1`: 8.58.
On the same count and under the same terms, the same measure for `CC(C)[NH2+]CC(=O)O`: 2.35; for `O=C(O)C#CCl`: 1.89.
Consider `CC(C)(S)CN`, for which the pKa worked out at 11.
The same measure, in the same setting: the same measure for `O=c1nc([O-])c2ncn([C@H]3O[C@@H](CO)[C@H](O)[C@@H]3O)c2[nH]1`: 13; for `O=c1cnn([C@H]2O[C@@H](CO)[C@H](O)[C@@H]2O)c(=O)[nH]1`: 6.6.

Still in this series, the particulars now being: basic group.
Regarding `N[C@H]1C[C@@H]2CCCC[C@H]2C[C@@H]1[NH3+]`, the pKa was 6.97.
In turn, `Cc1ccc2c(c1)cc(C)n2C` came in with a pKa of 0.5.
Compound `CS[C@H]1CCC[C@@H]1N(C)C` displayed a pKa of 8.85.
On the same count and under the same terms, the same measure for `O=C([O-])CCc1c[nH]cn1`: 7.55.
Still for that read-out and setting: then `Nc1n[nH]c(N)c1/N=N/c1ccccc1O`, with 3.51; and `c1ccc(C2CN3CCC2CC3)cc1` (stereo not given), with 10.2.
In the case of `N=C(c1ccccc1)c1ccccc1O`, the pKa turned out to be 5.
On the same count and under the same terms, the same measure for `Clc1cc2cccnc2c2ncccc12`: 4.22; for `Cn1ccc(=O)cc1`: 3.33; for `CN(C)CC[Se-]`: 10.8.
Same read-out and setting: then `CC[NH+](CC)CCCC(C)Nc1ccnc2cc(Br)ccc12` (stereo not given), with 8.1; and `N#CCCNCCC#N`, with 5.23; and `CN[C@@H]1[C@@H](C)[C@@H]1[NH2+]C`, with 3.68.
On the same count and under the same terms, the same measure for `CC1CCCC(C)(C)N1C` (stereo not given): 10.8; for `Cc1n[nH]c2c(N)cccc12`: 3.18; for `COC(=O)C(N)CCONC(N)=O` (stereo not given): 6.95.
On to `CCOC(=O)C1(c2ccccc2)CCN(CC)CC1`, for which the pKa was 9.03.
Same read-out and setting: then `CN(C)/C=N/c1ccc([N+](=O)[O-])cc1`, with 6.71.
In turn, `c1ccc(Oc2ccnc3c2ccc2c(Oc4ccccc4)ccnc23)cc1` yielded a pKa of 5.34.
The same measure, in the same setting: then `N/C(=N\O)c1ccccc1N`, with 4.5; and `Brc1cc2cccnc2c2ncccc12`, with 4.2.
The same measure, in the same setting: the same measure for `COc1cc(Br)cc(C(=O)N[C@@H]2C[C@H]3CC[C@@H](C2)N3Cc2ccccc2)c1OC`: 8.84; for `O=S(=O)([O-])c1ccncc1`: 3.44; for `C[C@@H]1CCC[C@H](N(C)C)C1`: 10.5.
Same read-out and setting: then `Cn1cnc2ccccc21`, with 5.65.
For `CCOc1cccc(/N=C/N(C)C)c1`, the pKa amounted to 8.87.
Same read-out and setting: the same measure for `C[C@H](O)[C@H]1CC[C@H]2[C@@H]3CC[C@H]4C[C@H](N)CC[C@]4(C)[C@H]3CC[C@]12C`: 9.28; for `OCc1ccc(-c2nccc3c2[nH]c2ccccc23)o1`: 5.7; for `O/N=C/c1ccncc1`: 4.58.
Compound `COC(=O)C([NH3+])Cc1c[nH]cn1` (stereo not given) showed a pKa of 5.41.
The same measure, in the same setting: then `CN1CCCC[C@H]1c1cccnc1`, with 5.42; and `Cc1cccc(C)c1NC(=O)CNCC(C)C`, with 7.83; and `Cn1nnnc1N`, with 1.82.
In turn, `Cc1c([N+](=O)[O-])ccc2c(NCCC[NH+](C)C)ccnc12` came in with a pKa of 6.71.
The same measure, in the same setting: then `Oc1ccc2nccnc2c1`, with 1.4; and `NC(=O)/C=C(\O)c1ccncc1`, with 7.36.
Still for that read-out and setting: the same measure for `CC(C)(CN)C[NH3+]`: 7.99; for `c1ccc(C(CCN2CCOCC2)c2ccccc2)cc1`: 7.25.
The same measure, in the same setting: then `CC(=O)Nc1ccc(N)cc1`, with 4.46.
`NCCCCc1ccccc1` yielded a pKa of 10.4.
Same read-out and setting: then `NCC[Se-]`, with 10.9; and `O=[N+]([O-])c1ccc2[nH]c(-c3cccs3)nc2c1`, with 2.36.
Still for that read-out and setting: then `Cc1cc([O-])n(C2CCN(C)CC2)n1`, with 9; and `CCCN(CCC)c1ccc([N+](=O)[O-])cc1`, with 1.06.
The same measure, in the same setting: then `CCOc1ccc2[nH]c(C)nc2c1`, with 6.22.
Regarding `Cc1cnc([C@@H](O)[C@H](O)[C@H](O)CO)cn1`, the pKa is 1.4.
Same read-out and setting: then `COc1ccc(CC(C)N)cc1` (stereo not given), with 9.53; and `Nc1ccc2c(c1)Cc1cc(O)ccc1-2`, with 4.88.
The same measure, in the same setting: then `Cc1cc([C@@H](N)CO)c(O)c([C@@H](N)CO)c1`, with 9.
Still for that read-out and setting: the same measure for `CC(C)NNC1CCN(C(C)C)CC1`: 9.55; for `C#CC(C)Nc1ccccc1` (stereo not given): 3.25.
As to `O=C([O-])c1nccc2ccccc12`, the pKa amounted to 4.97.
On the same count and under the same terms, then `N#Cc1cc(-c2ccccc2)nnc1NCCN1CCOCC1`, with 6.5; and `c1ccc(-c2nc3cnccc3[nH]2)cc1`, with 6.
Consider `Oc1ccc(Cl)cc1CN1CCOCC1`, for which the pKa was 6.78.
The same measure, in the same setting: the same measure for `COc1ccc(N)cc1`: 5.35.
Still for that read-out and setting: then `CCN(CC)CC(=O)Nc1ccccc1C`, with 7.95.
The same measure, in the same setting: the same measure for `CCNCC[Se-]`: 10.9.
`CCCCCCCCCCCCCCCCCc1c2ccccc2nc2ccccc12` displayed a pKa of 5.5.
The compound `CNc1cc[n+](C)c([O-])n1` showed a pKa of 4.47.
Same read-out and setting: then `CC(C)(C)c1ccccc1N`, with 3.78.
`O=C(Cc1cccnc1)c1ccccc1` gave a pKa of 4.87.
The same measure, in the same setting: the same measure for `NC(=O)NOCCC(N)C(=O)[O-]` (stereo not given): 8.9.
In turn, `Cc1ccc(C2CCC[NH+]2C)cn1` (stereo not given) had a pKa of 3.78.
Still for that read-out and setting: the same measure for `COc1ccc(F)cc1C(=O)N[C@@H]1C[C@H]2CC[C@@H](C1)N2Cc1ccccc1`: 8.82.
The same measure, in the same setting: the same measure for `Cc1cc2c(cc1N)Sc1cc([NH+](C)C)ccc1N2`: 4.81; for `CC(=O)/N=c1\ccccn1C`: 7.12; for `CC1CC(=O)CC(=O)O1` (stereo not given): 5.1.
On the same count and under the same terms, then `CCCCN(C)N(C)CCCC`, with 7.16; and `CCN1CCCCC1C` (stereo not given), with 10.7.
In the case of `N[C@H]1CCCC[C@@H]1C(=O)Oc1ccc([N+](=O)[O-])cc1`, the pKa is 8.57.
In the case of `CC(C)(S)CN`, the pKa is 8.48.
The same measure, in the same setting: then `CC(Cl)CN(C)C` (stereo not given), with 8.12.
In turn, `c1c[nH+]c(Cc2nc(Cc3c[nH]c[nH+]3)c[nH]2)[nH]1` registered a pKa of 3.94.
On the same count and under the same terms, then `Oc1onc2c1CCNCC2`, with 9.6; and `c1ccc2c(c1)N1CC[NH+]2CC1`, with 2.5.
Same read-out and setting: the same measure for `c1cncc(-c2[nH]c3ccccc3[nH+]2)c1`: 1.56; for `OCNc1nc(NCO)nc(NCO)n1`: 4.05.
On the same count and under the same terms, then `Cc1ccccc1/C(=N\CCCN(C)C)c1ccccc1-c1ccccc1`, with 9.25.
